≈ marks a conversion by molar mass, not a printed value. Read-outs that look alike come from different tables or passages of the source.
Columns and labels:
Clostridium histolyticum = assay: MIC anaerobic screen; format: cell-based; conditions: Hathewaya histolytica, Table IV, strain 8572, read-out: Minimum Inhibitory Concentration
Method: (§1) The antibiotic is prepared as described above for the aerobic screen.
(§2) All organisms are maintained in a tube of chopped meat broth with glucose supplied by Scott Laboratories in Rhode Island. Two days prior to running the test 0.1 ml of the maintained culture is transferred to a fresh tube of chopped meat broth, and the tube is incubated at 37° C. for 48 hours. After 48 hours incubation each culture is assumed to have grown to 1×10^8 CFU/ml.
(§3) The organisms are stamped onto antibiotic containing agar plates (Mueller Hinton Agar BBL+5% whole sheep blood+0.2% lysed sheep blood) to give an inoculum level of 10^5 CFU.
(§4) After stamping, the plates are placed in an anaerobic gas pack system (BBL) and incubated at 37° C. for 18 hours.

Clostridium septicum = assay: MIC anaerobic screen; format: cell-based; conditions: Table IV, strain 1780, read-out: Minimum Inhibitory Concentration
Method: as §1, §2, §3, §4

Clostridium sporogenes = assay: MIC anaerobic screen; format: cell-based; conditions: Table IV, strain 2372, read-out: Minimum Inhibitory Concentration
Method: as §1, §2, §3, §4

Eubacterium lentum = assay: MIC anaerobic screen; format: cell-based; conditions: Eggerthella lenta, Table IV, strain 11,261, read-out: Minimum Inhibitory Concentration
Method: as §1, §2, §3, §4

[1] = system: Fusobacterium necrophorum; assay: MIC anaerobic screen; format: cell-based; conditions: Table IV, strain 11,338, read-out: Minimum Inhibitory Concentration
Method: as §1, §2, §3, §4

Clostridium perfringens = assay: microbe, parasite or virus in culture; format: cell-based; conditions: read-out: Minimum Inhibitory Concentration
Peptococcus variabilis = assay: MIC anaerobic screen; format: cell-based; conditions: Table IV, strain 11,264, read-out: Minimum Inhibitory Concentration
[2] = system: Peptostreptococcus anaerobius; assay: MIC anaerobic screen; format: cell-based; conditions: Table IV, strain 11,263, read-out: Minimum Inhibitory Concentration
M. canis = assay: MIC against dermatophytes; format: cell-based; conditions: Microsporum canis; Table VI; strain 9237; 26° C., 48 hours; read-out: Minimum Inhibitory Concentration
Mycoplasma mycoides = assay: microbe, parasite or virus in culture; format: cell-based; conditions: 48 h
Acholeplasma laidlawii = assay: MIC against mycoplasmas; format: cell-based; conditions: Table VIII, 48 hours, 37° C., phenol red color change
Enterobacter cloacae = assay: MIC aerobic screen, BA-2 agar; conditions: Enterobacter cloacae, strain 10,459
Escherichia coli = assay: MIC aerobic screen, BA-2 agar; conditions: Escherichia coli
Klebsiella aerogenes [3] = assay: MIC aerobic screen, BA-2 agar; conditions: Klebsiella aerogenes, strain 10,436
Proteus rettgeri = assay: MIC aerobic screen, BA-2 agar; conditions: Providencia rettgeri, read-out: Minimum Inhibitory Concentration
[4] = system: Acinetobacter calcoaceticus; assay: MIC aerobic screen, H-59 synthetic agar; conditions: read-out: Minimum Inhibitory Concentration
Klebsiella aerogenes [5] = assay: MIC aerobic screen, H-59 synthetic agar; conditions: read-out: Minimum Inhibitory Concentration
Klebsiella penumoniae = assay: MIC aerobic screen, H-59 synthetic agar; conditions: read-out: Minimum Inhibitory Concentration
[6] = read-out: Minimum Inhibitory Concentration, Table I, BA-2 agar
[7] = read-out: Minimum Inhibitory Concentration, Table II, additional tests

CC1(O)CC(C(N)=O)N=C1c1ncccc1O (stereo not drawn) [EM4940A, 2,4-trans-3,4-dihydro-4-hydroxy-5-(3-hydroxy-2-pyridinyl)-4-methyl-2H-pyrrole-2-carboxamide]
MIC (Clostridium histolyticum): 12.5 µg/mL (≈ 53.1 µM)
MIC (Clostridium septicum): 12.5 µg/mL (≈ 53.1 µM)
MIC (Clostridium sporogenes): 12.5 µg/mL (≈ 53.1 µM)
MIC (Eubacterium lentum): 12.5 µg/mL (≈ 53.1 µM)
MIC [1]: 12.5 µg/mL (≈ 53.1 µM)
MIC (Clostridium perfringens): 50 µg/mL (≈ 213 µM)
MIC (Peptococcus variabilis): 50 µg/mL (≈ 213 µM)
MIC [2]: 50 µg/mL (≈ 213 µM)
MIC (M. canis): 100 µg/mL (≈ 425 µM)
MIC (Mycoplasma mycoides): > 100 µg/mL
MIC (Acholeplasma laidlawii): 100 µg/mL (≈ 425 µM)
MIC (Enterobacter cloacae; [6]): > 100 µg/mL
MIC (Enterobacter cloacae; [7]): 50 µg/mL (≈ 213 µM)
MIC (Escherichia coli; read-out: Minimum Inhibitory Concentration, Table I, BA-2 agar, strain 10,404): 100 µg/mL (≈ 425 µM)
MIC (Escherichia coli; read-out: Minimum Inhibitory Concentration, Table I, BA-2 agar, strain 10,857): 50 µg/mL (≈ 213 µM)
MIC (Escherichia coli; read-out: Minimum Inhibitory Concentration, Table I, BA-2 agar, strain 10,896): 25 µg/mL (≈ 106 µM)
MIC (Escherichia coli; read-out: Minimum Inhibitory Concentration, Table II, additional tests, strain 10,404): 50 µg/mL (≈ 213 µM)
MIC (Escherichia coli; read-out: Minimum Inhibitory Concentration, Table II, additional tests, strain 10,857): 50 µg/mL (≈ 213 µM)
MIC (Klebsiella aerogenes [3]; [6]): 100 µg/mL (≈ 425 µM)
MIC (Klebsiella aerogenes [3]; [7]): 50 µg/mL (≈ 213 µM)
MIC (Proteus rettgeri): 50 µg/mL (≈ 213 µM)
MIC [4]: 25 µg/mL (≈ 106 µM)
MIC (Klebsiella aerogenes [5]): 50 µg/mL (≈ 213 µM)
MIC (Klebsiella penumoniae): 50 µg/mL (≈ 213 µM)

— US4339535A, “Process for preparing antibiotic EM 4940” (E. R. Squibb & Sons, Inc., priority 1980, dated 1982)
